Source: ChEMBL document CHEMBL1201862, “PubChem BioAssay data set” (2004)
Values joined by “and” are separate entries in the source; they are usually repeats but may differ in a detail not shown here. Equal values may be shown once.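 In this assay, cells in 96-well plates receive the compound at five concentrations for 48 hours. Endpoints are linearly interpolated between the surrounding concentrations. GI50: concentration for 50% inhibition of growth.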 Active and inactive are the calls of the source. No stated cut-off is given here; in the data, active = GI50 up to about 1.1 µM and inactive = higher.

Assays:
Assay in all cases: DTP human tumour cell line panel, 48 h
MDA-N = system: MDA-N
UACC-257 = system: UACC-257
SF-268 = system: SF-268
T47D = system: T47D
SK-MEL-2 = system: SK-MEL-2
OVCAR-3 = system: OVCAR-3
LOX IMVI = system: LOX IMVI
A549 = system: A549
HCC 2998 = system: HCC 2998
MDA-MB-231 = system: MDA-MB-231
SNB-19 = system: SNB-19
NCI-H226 = system: NCI-H226
PC-3 = system: PC-3
SN12C = system: SN12C
CAKI-1 = system: CAKI-1
SK-OV-3 = system: SK-OV-3
M14 = system: M14
RXF 393 = system: RXF 393

Row | SMILES | GI50 (MDA-N) | GI50 (UACC-257) | GI50 (SF-268) | GI50 (T47D) | GI50 (SK-MEL-2) | GI50 (OVCAR-3) | GI50 (LOX IMVI) | GI50 (A549) | GI50 (HCC 2998) | GI50 (MDA-MB-231) | GI50 (SNB-19) | GI50 (NCI-H226) | GI50 (PC-3) | GI50 (SN12C) | GI50 (CAKI-1) | GI50 (SK-OV-3) | GI50 (M14) | GI50 (RXF 393)
1 | OCCSCC(O)Cn1cnc2c(O)nc(Nc3ccccc3)nc21 (stereo not given) | > 100 µM (inactive) | > 100 µM (inactive) | > 100 µM (inactive) | > 100 µM (inactive) | > 100 µM (inactive) | > 100 µM (inactive) | > 100 µM (inactive) | > 100 µM (inactive) | > 100 µM (inactive) | > 100 µM (inactive) | > 100 µM (inactive) | > 100 µM (inactive) | > 100 µM (inactive) | > 100 µM (inactive) | > 100 µM (inactive) | > 100 µM (inactive) | > 100 µM (inactive) | 
2 | CCNc1cc2c(cc1O)CC[C@@H]1[C@@H]2CC[C@]2(C)[C@@H](O)CC[C@@H]12 | 0.232 µM (active) | 11.8 µM (inactive) | 15.8 µM (inactive) | 6.04 µM (inactive) |  |  | 2.98 µM (inactive) | 2.32 µM (inactive) | 1.02 µM (active) | 10.5 µM (inactive) | 0.82 µM (active) | 2.82 µM (inactive) | 9.91 µM (inactive) | 15.3 µM (inactive) | 13.5 µM (inactive) |  | 1.78 µM (inactive) | 3.53 µM (inactive)
3 | CNC(=S)N/N=C(\C)c1cc(OC)c(OC)cc1O | > 100 µM (inactive) | > 100 µM (inactive) | > 100 µM (inactive) | > 100 µM (inactive) | > 100 µM (inactive) | > 100 µM (inactive) |  | > 100 µM (inactive) | > 100 µM (inactive) | > 100 µM (inactive) | > 100 µM (inactive) |  | > 100 µM (inactive) | > 100 µM (inactive) | > 100 µM (inactive) | > 100 µM (inactive) | > 100 µM (inactive) | > 100 µM (inactive)
4 | COc1ccc(-c2nc(SCC(=O)N/N=C/c3ccc([N+](=O)[O-])cc3)[nH]c2-c2ccc(OC)cc2)cc1 | 3.16 µM (inactive) | 16.4 µM (inactive) | 25.7 µM (inactive) | 15.8 µM (inactive) | 6.47 µM (inactive) | 10.4 µM (inactive) | 14 µM (inactive) | 6.95 µM (inactive) | 12.1 µM (inactive) | 21.2 µM (inactive) | 24.4 µM (inactive) |  | 6.49 µM (inactive) | 16.6 µM (inactive) | 28.1 µM (inactive) | 20.2 µM (inactive) | 12.2 µM (inactive) | 11.4 µM (inactive)
5 | CCOC(=O)c1c(CN2CCOCC2)n(Cc2ccccc2)c2c1cc(O)c1nc(C)c(C)nc12 | 72.8 µM (inactive) | > 100 µM (inactive) | 21.8 µM (inactive) | 20 µM (inactive) | 20 µM (inactive) | 52.7 µM (inactive) | 46.6 µM (inactive) | 49 µM (inactive) | > 100 µM (inactive) | 85.1 µM (inactive) | 38.2 µM (inactive) | 45.5 µM (inactive) | 17.5 µM (inactive) | > 100 µM (inactive) | 22.1 µM (inactive) | 33.3 µM (inactive) | > 100 µM (inactive) | 
6 | Cc1ccc(Nc2n[nH]c(=S)s2)cc1 | 59.4 µM (inactive) | > 100 µM (inactive) | > 100 µM (inactive) | 96.6 µM (inactive) |  | > 100 µM (inactive) | > 100 µM (inactive) | > 100 µM (inactive) | > 100 µM (inactive) | > 100 µM (inactive) | > 100 µM (inactive) | > 100 µM (inactive) | > 100 µM (inactive) | > 100 µM (inactive) | > 100 µM (inactive) | > 100 µM (inactive) | > 100 µM (inactive) | > 100 µM (inactive)
7 | CCOC(=O)C(SCCO)C(C(=O)OCC)n1ccc(N)nc1=O (stereo not given) | > 100 µM (inactive) | > 100 µM (inactive) | > 100 µM (inactive) | > 100 µM (inactive) | > 100 µM (inactive) | > 100 µM (inactive) | > 100 µM (inactive) | > 100 µM (inactive) | > 100 µM (inactive) | > 100 µM (inactive) | > 100 µM (inactive) | > 100 µM (inactive) | > 100 µM (inactive) | > 100 µM (inactive) | > 100 µM (inactive) | > 100 µM (inactive) | > 100 µM (inactive) | 
8 | CC(=O)O[C@H]1CC2C(C3CC[C@H](C(C)CCC(N)=O)[C@]31C)[C@H](OC(C)=O)C[C@@H]1CC3(CC[C@]21C)OOC1(CCC(C)CC1)OO3 (stereo not given in full) | 1.87 µM (inactive) and 2.07 µM (inactive) | 5.37 µM (inactive) and 4.6 µM (inactive) | 1.62 µM (inactive) and 1.83 µM (inactive) | 1.49 µM (inactive) and 2.01 µM (inactive) | 1.91 µM (inactive) | 2.07 µM (inactive) and 1.79 µM (inactive) | 1.83 µM (inactive) and 1.92 µM (inactive) | 1.24 µM (inactive) and 1.79 µM (inactive) | 2.06 µM (inactive) and 2.38 µM (inactive) | 2.21 µM (inactive) |  | 1.47 µM (inactive) and 2.09 µM (inactive) | 2.69 µM (inactive) | 1.67 µM (inactive) and 2.27 µM (inactive) | 2.29 µM (inactive) and 1.71 µM (inactive) |  | 2.22 µM (inactive) and 2.94 µM (inactive) | 1.95 µM (inactive) and 2.69 µM (inactive)
9 | CCC1CCN=C(Cn2cc(C)c(=O)[nH]c2=O)N1 (stereo not given) | > 100 µM (inactive) | > 100 µM (inactive) | > 100 µM (inactive) | > 100 µM (inactive) | > 100 µM (inactive) |  | > 100 µM (inactive) | > 100 µM (inactive) | > 100 µM (inactive) | > 100 µM (inactive) | > 100 µM (inactive) | > 100 µM (inactive) | > 100 µM (inactive) | > 100 µM (inactive) |  | > 100 µM (inactive) | > 100 µM (inactive) | > 100 µM (inactive)
10 | CCCCc1ccc(-n2sc3ncc([N+](=O)[O-])cc3c2=O)cc1 | 14.8 µM (inactive) | 16.6 µM (inactive) | 13 µM (inactive) | 10.1 µM (inactive) | 1.57 µM (inactive) | 5.05 µM (inactive) | 13.3 µM (inactive) | 12.9 µM (inactive) | 12.5 µM (inactive) | 11.4 µM (inactive) | 13.7 µM (inactive) | 12.8 µM (inactive) | 5.55 µM (inactive) | 17.3 µM (inactive) | 13.4 µM (inactive) | > 100 µM (inactive) | 17.4 µM (inactive) | 
11 | COc1ccc(-n2c(N)c(C#N)[nH]c2=O)cc1 | > 10 µM (inactive) | > 10 µM (inactive) | > 10 µM (inactive) | > 10 µM (inactive) | > 10 µM (inactive) | > 10 µM (inactive) | 1.79 µM (inactive) | > 10 µM (inactive) | > 10 µM (inactive) | > 10 µM (inactive) | > 10 µM (inactive) | > 10 µM (inactive) | > 10 µM (inactive) | > 10 µM (inactive) |  | > 10 µM (inactive) | > 10 µM (inactive) | > 10 µM (inactive)
12 | COc1ccc2c(C)c(Oc3c(Cl)c(Cl)c(O)c(C#N)c3C#N)oc2c1 | > 100 µM (inactive) | > 100 µM (inactive) | > 100 µM (inactive) | > 100 µM (inactive) | > 100 µM (inactive) | > 100 µM (inactive) | > 100 µM (inactive) | > 100 µM (inactive) | > 100 µM (inactive) | > 100 µM (inactive) | > 100 µM (inactive) | > 100 µM (inactive) | > 100 µM (inactive) | > 100 µM (inactive) | > 100 µM (inactive) | > 100 µM (inactive) | > 100 µM (inactive) | 
13 | N#Cc1nc(-c2ccco2)oc1N | > 10 µM (inactive) | > 10 µM (inactive) | > 10 µM (inactive) | > 10 µM (inactive) |  |  | > 10 µM (inactive) | > 10 µM (inactive) | > 10 µM (inactive) | > 10 µM (inactive) | > 10 µM (inactive) | > 10 µM (inactive) | > 10 µM (inactive) |  | > 10 µM (inactive) | > 10 µM (inactive) | > 10 µM (inactive) | > 10 µM (inactive)
14 | CN1C(=O)c2ccccc2OC12C=Cc1ccc(O)cc1O2 (stereo not given) | 31 µM (inactive) | 15.6 µM (inactive) | 26.9 µM (inactive) | 13.8 µM (inactive) | 20.6 µM (inactive) | 17.1 µM (inactive) | 9.62 µM (inactive) | 30.8 µM (inactive) | 18.9 µM (inactive) | 18.5 µM (inactive) | 20.4 µM (inactive) | 23.2 µM (inactive) | 21.3 µM (inactive) | 26.7 µM (inactive) | 16.1 µM (inactive) | 19.5 µM (inactive) | 12.7 µM (inactive) | 
15 | Oc1cccc2ccc(Br)nc12 | > 100 µM (inactive) | > 100 µM (inactive) | > 100 µM (inactive) | 51.6 µM (inactive) |  | > 100 µM (inactive) | > 100 µM (inactive) | > 100 µM (inactive) | 63 µM (inactive) | > 100 µM (inactive) | > 100 µM (inactive) | > 100 µM (inactive) | 86.5 µM (inactive) | > 100 µM (inactive) | > 100 µM (inactive) | > 100 µM (inactive) | > 100 µM (inactive) | > 100 µM (inactive)
16 | CC(C)[C@@H]1ON1C(C)c1ccccc1 (stereo not given in full) | > 100 µM (inactive) | > 100 µM (inactive) | > 100 µM (inactive) | > 100 µM (inactive) |  | > 100 µM (inactive) | > 100 µM (inactive) | > 100 µM (inactive) | > 100 µM (inactive) | > 100 µM (inactive) | > 100 µM (inactive) | > 100 µM (inactive) | > 100 µM (inactive) | > 100 µM (inactive) | 17.1 µM (inactive) | > 100 µM (inactive) | > 100 µM (inactive) | > 100 µM (inactive)
